Key:
[1] = Percent drug content change of coated cobalt-chromium 18 mm stent over 0 to 12 weeks (FIG. 1); format: physicochemical; settings: 0.02 weight percent BHT per total basecoat solids; 8 weeks and 12 weeks, ambient conditions (25° C.)
Text: Referring to FIG. 1, there is illustrated in graphical format, the results of the same drug screening as described above with the solution applied to a cobalt-chromium, 18 mm stent. In this test, two sets of solution samples were utilized, one with sirolimus and polymer solution containing the antioxidant and one with sirolimus and polymer solution containing no antioxidant. The antioxidant utilized was 0.02 weight percent BHT per total basecoat solids. The test was utilized to determine the percent drug content change over a time period of 0 to 12 weeks under two conditions; namely, 40° C. with 75 percent relative humidity, and ambient conditions (25° C.).

[2] = Drug concentration in liquid formulations by liquid chromatography / HPLC; format: physicochemical
Text: A series of liquid formulations were developed for the local or regional delivery of water insoluble compounds such as sirolimus and its analogs, including CCI-779, ABT-578 and everolimus, through weeping balloons and catheter injection needles. Sirolimus and its analogs are rapamycins. These liquid formulations increase the apparent solubility of the pharmacologically active but water insoluble compounds by two to four orders of magnitude as compared to the solubility limits of the compounds in water. These liquid formulations rely on the use of a very small amount of organic solvents such as Ethanol and a larger amount of safe amphiphilic (of or relating to a molecule having a polar, water soluble group attached to a non-polar, water insoluble […]) excipients such as polyethylene glycol (PEG 200, PEG 400) and vitamin E TPGS to enhance the solubility of the compounds. These liquid formulations of highly water insoluble compounds are stable and readily flowable at room temperature. Certain excipients, such as Vitamin E TPGS and BHT may be utilized to enhance the storage stability of sirolimus compounds through their anti-oxidation properties.
Table 7, shown below, summarizes the concentrations of the excipient, the co-solvents and the drug for four different liquid formulations. […]

[3] = Sirolimus tissue concentration in porcine coronary arteries by LC-MS; format: in vivo; settings: 50 mg/ml
Description: In accordance with a second experiment, the efficacy of a PTCA balloon coated with the 5 percent BHT solution was tested in a porcine injury model. The balloon coating formulation of sirolimus and BHT (5 percent BHT, w/w) was made according to the procedure described above. In total, three coating solutions of sirolimus and BHT (5 percent BHT, w/w) and one coating solution without BHT were prepared for the study. A standard CYPHER® Sirolimus-eluting Coronary Stent available from the Cordis Corporation was used as a control for the study. Both FIRE STAR® PTCA balloons (3.5 mm×20 mm, with total surface area of 220 mm^2) with hydrophilic treatment and the ones without a hydrophilic treatment were tested in the study. The final coating density of sirolimus and sirolimus loss during expansion were measured by HPLC. The tissue concentration in the porcine coronary arteries was measured by liquid chromatography-mass spectroscopy (LC-MS). The amount of intimal hyperplasia was determined by standard quantitative coronary angiography (QCA) at day 30.

[4] = Description: Table 9, shown below, summarizes a number of injectable liquid formulations of paclitaxel utilizing combinations of ethanol, PEG 400 and water. Specifically, the formulations set forth in Table 9 were made and analyzed for their concentrations of its various constituents. The concentrations are determined by liquid chromatography and are presented as weight by volume figures. The concentration of ethanol is preferably two or less percent so as to avoid ethanol becoming an active ingredient in the formulation.
Another aqueous liquid or injectable formulation of paclitaxel is made utilizing ethanol, PEG 400 and water, and ethanol, Vitamin E TPGS, PEG400 and water. In making the first formulation, 100 mg of paclitaxel is added to 400 μl of ethanol in a pre-weighed 20 ml scintillation vial. The mixture of paclitaxel and ethanol is vortexed and heated in a 60 degree C. bath for ten minutes. Once the drug is completely solubilized, 20 ml of PEG 400 is then added to make the final paclitaxel concentration 5 mg/ml. […] In a separate experiment, a series of 20 ml scintillation vials containing Vitamin E TPGS are heated or warmed up in a 50 degree C. water bath for ten minutes. Concurrently, distilled water is also warmed in a 50 degree C. water bath. […]

Cc1cc(C(C)(C)C)c(O)c(C(C)(C)C)c1 [BHT, butylated hydroxytoluene]
percent drug content change (drug degradation) [1]: lessens drug degradation

CO[C@H]1C[C@@H]2CC[C@@H](C)[C@@](O)(O2)C(=O)C(=O)N2CCCC[C@H]2C(=O)O[C@H]([C@H](C)C[C@@H]2CC[C@@H](OC(=O)C(C)(CO)CO)[C@H](OC)C2)CC(=O)[C@H](C)/C=C(\C)[C@@H](O)[C@@H](OC)C(=O)[C@H](C)C[C@H](C)/C=C/C=C/C=C/1C [CCI-779]
concentration in the final solution (HPLC assay) ([2]; ethanol less than two percent, Vitamin E TPGS, water): 15000 µg/mL

CO[C@H]1C[C@@H]2CC[C@@H](C)[C@@](O)(O2)C(=O)C(=O)N2CCCC[C@H]2C(=O)O[C@H]([C@H](C)C[C@@H]2CC[C@@H](O)[C@H](OC)C2)CC(=O)[C@H](C)/C=C(\C)[C@@H](O)[C@@H](OC)C(=O)[C@H](C)C[C@H](C)/C=C/C=C/C=C/1C [Rapamycin, rapamycin]
concentration in the 4 mg/ml PEG 200 formulation relative to the solubility in water ([2]; PEG 200 excipient, ethanol and water co-solvents): four hundred to about one thousand
Sirolimus conc in artery tissue post-deploy ([3]; 20 min, hydrophilic coat No, Acetone/ethanol/water (50/40/10), BHT 5% (PKd)): 382 ± 190 ng sirolimus/mg tissue
Sirolimus conc in artery tissue post-deploy ([3]; 20 min, hydrophilic coat No, IPA/Water (3.4/1), BHT 5% (PKb)): 218 ± 96 ng sirolimus/mg tissue
Sirolimus conc in artery tissue post-deploy ([3]; 20 min, hydrophilic coat yes, IPA/Water (3.4/1), BHT 0% (PKc)): 219 ± 85 ng sirolimus/mg tissue
Sirolimus conc in artery tissue post-deploy ([3]; 20 min, hydrophilic coat yes, IPA/Water (3.4/1), BHT 5% (Pka)): 313 ± 61 ng sirolimus/mg tissue
Sirolimus conc in artery tissue post-deploy ([3]; 24 hr, hydrophilic coat No, Acetone/ethanol/water (50/40/10), BHT 5% (PKd)): 25 ± 20 ng sirolimus/mg tissue
Sirolimus conc in artery tissue post-deploy ([3]; 24 hr, hydrophilic coat No, IPA/Water (3.4/1), BHT 5% (PKb)): 39 ± 37 ng sirolimus/mg tissue
Sirolimus conc in artery tissue post-deploy ([3]; 24 hr, hydrophilic coat yes, IPA/Water (3.4/1), BHT 0% (PKc)): 16 ± 11 ng sirolimus/mg tissue
Sirolimus conc in artery tissue post-deploy ([3]; 24 hr, hydrophilic coat yes, IPA/Water (3.4/1), BHT 5% (Pka)): 40.7 ± 14.6 ng sirolimus/mg tissue
Sirolimus conc in artery tissue post-deploy ([3]; 8 day, hydrophilic coat No, Acetone/ethanol/water (50/40/10), BHT 5% (PKd)): 21 ± 36 ng sirolimus/mg tissue
Sirolimus conc in artery tissue post-deploy ([3]; 8 day, hydrophilic coat No, IPA/Water (3.4/1), BHT 5% (PKb)): 14 ± 15 ng sirolimus/mg tissue
Sirolimus conc in artery tissue post-deploy ([3]; 8 day, hydrophilic coat yes, IPA/Water (3.4/1), BHT 0% (PKc)): 16 ± 18 ng sirolimus/mg tissue
Sirolimus conc in artery tissue post-deploy ([3]; 8 day, hydrophilic coat yes, IPA/Water (3.4/1), BHT 5% (Pka)): 9.8 ± 10.4 ng sirolimus/mg tissue
Sirolimus conc in artery tissue post-deploy ([3]; 30 day, hydrophilic coat No, Acetone/ethanol/water (50/40/10), BHT 5% (PKd)): 12 ± 18 ng sirolimus/mg tissue
Sirolimus conc in artery tissue post-deploy ([3]; 30 day, hydrophilic coat No, IPA/Water (3.4/1), BHT 5% (PKb)): 5.0 ± 4.8 ng sirolimus/mg tissue
Sirolimus conc in artery tissue post-deploy ([3]; 30 day, hydrophilic coat yes, IPA/Water (3.4/1), BHT 0% (PKc)): 3.2 ± 2.8 ng sirolimus/mg tissue
Sirolimus conc in artery tissue post-deploy ([3]; 30 day, hydrophilic coat yes, IPA/Water (3.4/1), BHT 5% (Pka)): 8.4 ± 5.7 ng sirolimus/mg tissue

CC(=O)O[C@H]1C(=O)[C@@]2(C)[C@H]([C@H](OC(=O)c3ccccc3)[C@]3(O)C[C@H](OC(=O)[C@H](O)[C@@H](NC(=O)c4ccccc4)c4ccccc4)C(C)=C1C3(C)C)[C@]1(OC(C)=O)CO[C@@H]1C[C@@H]2O [paclitaxel]
fold higher than the solubility in water [4]: about 1000 fold
concentration reached in true aqueous liquid formulations ([4]; PEG 400 / Vitamin E TPGS / ethanol / water): up to 2.5 mg/ml

From patent publication US20120302954A1, “EXPANDABLE DEVICES COATED WITH A PACLITAXEL COMPOSITION” (priority 2011, published 2012)
